US9708336B2, “Metallo-beta-lactamase inhibitors” (priority 2014, dated 2017)
Read-outs that look alike come from different tables or passages of the source.

What was measured:
[1] = target: NDM-1 (Klebsiella pneumoniae, UniProt C7C422); assay: biochemical; type: biochemical
[2] = target: IMP-1 (Serratia marcescens, UniProt P52699); assay: biochemical; type: biochemical; details: read-out: IMP-1 IC50
[3] = target: VIM-1 (Pseudomonas aeruginosa (strain ATCC 15692 / DSM 22644 / CIP 104116 / JCM 14847 / LMG 12228 / 1C / PRS 101 / PAO1), UniProt A0A0F7KYQ8); assay: Enzyme activity: determination of IC50, fluorescence assay with CCF2-FA substrate (VIM-1); type: biochemical
[4] = tested on: Escherichia coli expressing NDM-1 (CLB30016); assay: Antibiotic potentiation activity: synergistic concentration (MITC95) with imipenem, OD600 growth; type: cell-based
In short: (§1)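 Growth after 22–24 h at 35 °C is measured spectrophotometrically for bacteria incubated with compound plus imipenem (4 μg/ml in-well, or 1 μg/ml). Cells come from overnight agar colonies resuspended in saline and diluted 1:100 in 1.1× CAMHB.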

[5] = tested on: Klebsiella pneumoniae expressing VIM-1 (IHMA599644); assay: as above; type: cell-based
In short: as §1

[6] = tested on: Serratia marcescens expressing IMP-1 (CL5741); assay: as above; type: cell-based
In short: as §1

[7] = NDM-1 enzyme, CCF2-FA substrate, read-out: NDM-1 IC50
[8] = IMP-1 enzyme, CCF2-FA substrate
[9] = VIM-1 enzyme, CCF2-FA substrate, read-out: VIM-1 IC50
[10] = (CLB30016, NDM-1), 95% growth inhibition
[11] = Klebsiella pneumoniae IHMA599644 (VIM-1), 95% growth inhibition
[12] = Serratia marcescens CL5741 (IMP-1), 95% growth inhibition
[13] = NDM-1 enzyme, CCF2-FA fluorescence assay, read-out: NDM-1 IC50
[14] = IMP-1 enzyme, CCF2-FA fluorescence assay
[15] = VIM-1 enzyme, CCF2-FA fluorescence assay, read-out: VIM-1 IC50
[16] = Escherichia coli expressing NDM-1 (CLB30016), 95% growth inhibition
[17] = Klebsiella pneumoniae expressing VIM-1 (IHMA599644), 95% growth inhibition
[18] = Serratia marcescens expressing IMP-1 (CL5741), 95% growth inhibition
[19] = fluorescence assay with CCF2-FA substrate, read-out: NDM-1 IC50
[20] = fluorescence assay with CCF2-FA substrate
[21] = VIM-1 IC50, fluorescence assay with CCF2-FA substrate
[22] = concentration giving 95% inhibition of bacterial growth
[23] = VIM-1 IC50, VIM-1 enzyme, CCF2-FA substrate

Chain of NDM-1 (C7C422 whole entry, looked up, species assumed): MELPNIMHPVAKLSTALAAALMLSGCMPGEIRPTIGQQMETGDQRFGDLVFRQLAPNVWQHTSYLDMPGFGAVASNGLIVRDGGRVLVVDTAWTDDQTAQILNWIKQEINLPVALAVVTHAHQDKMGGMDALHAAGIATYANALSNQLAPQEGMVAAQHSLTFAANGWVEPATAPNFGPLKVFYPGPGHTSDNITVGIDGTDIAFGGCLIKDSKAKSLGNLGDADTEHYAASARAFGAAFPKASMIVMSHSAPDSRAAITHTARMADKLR
Chain of IMP-1 (P52699 whole entry, looked up): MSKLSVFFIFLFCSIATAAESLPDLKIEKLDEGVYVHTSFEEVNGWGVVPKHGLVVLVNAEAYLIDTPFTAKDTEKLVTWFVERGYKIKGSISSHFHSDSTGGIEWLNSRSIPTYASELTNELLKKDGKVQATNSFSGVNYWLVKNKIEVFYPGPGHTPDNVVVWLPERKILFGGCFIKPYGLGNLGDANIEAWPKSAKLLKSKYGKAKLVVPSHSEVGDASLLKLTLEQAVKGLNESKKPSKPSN

SMILES	IC50 [1, 7] [nM]	IC50 [2, 8] [nM]	IC50 [3, 9] [nM]	Escherichia coli MITC95 [4, 10] [µM]	Klebsiella pneumoniae MITC95 [5, 11] [µM]	Serratia marcescens MITC95 [6, 12] [µM]	IC50 [1, 13] [nM]	IC50 [2, 14] [nM]	IC50 [3, 15] [nM]	Escherichia coli MITC95 [4, 16] [µM]	Klebsiella pneumoniae MITC95 [5, 17] [µM]	Serratia marcescens MITC95 [6, 18] [µM]	further results
Nc1nc2c(-c3ccc(CCCCCO)c(S(N)(=O)=O)c3-c3nn[nH]n3)cccc2s1 [Example 534, 3-(2-Aminobenzo[d]thiazol-4-yl)-6-(5-hydroxypentyl)-2-(2H-tetrazol-5-yl)benzenesulfonamide]	0.444	9.53	0.843	6.25	12.5	25	–	–	–	–	–	–	–
NCc1ccc(-c2ccc(C(F)(F)F)c(S(N)(=O)=O)c2-c2nn[nH]n2)cc1 [Example 439, 4′-(aminomethyl)-2-(2H-tetrazol-5-yl)-4-(trifluoromethyl)-[1,1′-biphenyl]-3-sulfonamide]	–	–	–	–	–	–	11.9	20.6	4.05	0.7813	1.563	0.5859	–
CCN1CCC(NCc2ccc(-c3cccc(S(N)(=O)=O)c3-c3nnn[nH]3)cc2)CC1 [Example 352, 4′-{[(1-ethylpiperidin-4-yl)amino]methyl}-2-(1H-tetrazol-5-yl)biphenyl-3-sulfonamide]	–	–	–	–	–	–	38	547	916	1.563	>200	6.25	–
Cc1cc2nccn2cc1-c1cccc(S(N)(=O)=O)c1-c1nnn[nH]1 [Example 115, 3-(7-methylimidazo[1,2-a]pyridin-6-yl)-2-(1H-tetrazol-5-yl)benzenesulfonamide]	–	–	–	–	–	–	–	–	–	–	–	–	IC50 [1, 19]: 7.81 nM; IC50 [2, 20]: 544 nM; IC50 [3, 21]: 54.4 nM; Escherichia coli expressing NDM-1 (CLB 30016) MITC95 [4, 22]: 0.25 µM; Klebsiella pneumoniae expressing VIM-1 (IHMA 599644) MITC95 [5, 22]: 37.5 µM; Serratia marcescens expressing IMP-1 (CL5741) MITC95 [6, 22]: 18.75 µM
NS(=O)(=O)c1cccc(-c2ccc(CNCCc3c[nH]cn3)cc2)c1-c1nnn[nH]1 [Example 384, 4′-({[2-(1H-imidazol-4-yl)ethyl]amino}methyl)-2-(1H-tetrazol-5-yl)biphenyl-3-sulfonamide]	–	–	–	–	–	–	13.6	293	225	1.953	50	4.688	–
Nc1nc2nccc(-c3ccc(C(F)(F)F)c(S(N)(=O)=O)c3-c3nnn[nH]3)c2[nH]1 [Example 570, 3-(2-amino-1H-imidazo[4,5-b]pyridin-7-yl)-2-(1H-tetrazol-5-yl)-6-(trifluoromethyl)benzenesulfonamide]	0.33	4.06	0.49	3.125	6.25	6.25	–	–	–	–	–	–	–
Nc1n[nH]c2ccc(-c3ccc(C(F)(F)F)c(S(N)(=O)=O)c3-c3nnn[nH]3)cc12 [Example 480, 3-(3-amino-1H-indazol-5-yl)-2-(1H-tetrazol-5-yl)-6-(trifluoromethyl)benzenesulfonamide]	–	–	–	–	–	–	0.871	9.14	0.264	0.7813	2.344	0.7813	–
NCc1ncc(CCc2ccc(C(F)(F)F)c(S(N)(=O)=O)c2-c2nn[nH]n2)cc1N [Example 513, 3-(2-(5-Amino-6-(aminomethyl)pyridin-3-yl)ethyl)-2-(2H-tetrazol-5-yl)-6-(trifluoromethyl)benzenesulfonamide]	9.35	3.61	1.18	12.5	9.375	9.375	–	–	–	–	–	–	–
NS(=O)(=O)c1cccc(-c2ccc(NCC3CCN3)nc2)c1-c1nnn[nH]1 (stereo not drawn) [Example 638, 3-[6-(azetidin-2-ylmethylamino)-3-pyridyl]-2-(1H-tetrazol-5-yl)benzenesulfonamide]	55	596	–	0.7813	12.5	12.5	–	–	–	–	–	–	IC50 [3, 23]: 181 nM
NS(=O)(=O)c1cccc(-c2ccc3nc(C(=O)O)ccc3c2)c1-c1nn[nH]n1 [Example 287, 6-(3-sulfamoyl-2-(2H-tetrazol-5-yl)phenyl)quinoline-2-carboxylic acid]	–	–	–	–	–	–	0.734	159	34	9.375	37.5	18.75	–
COCc1cc(CCc2ccc(C(F)(F)F)c(S(N)(=O)=O)c2-c2nn[nH]n2)cnc1N [Example 512, 3-(2-(6-Amino-5-(methoxymethyl)pyridin-3-yl)ethyl)-2-(2H-tetrazol-5-yl)-6-(trifluoromethyl)benzenesulfonamide]	162	46	3.9	9.375	2.344	0.9766	–	–	–	–	–	–	–
Nc1nc(N)c2ccc(-c3ccc(C(F)(F)F)c(S(N)(=O)=O)c3-c3nnn[nH]3)cc2n1 [Example 750, 3-(2,4-diaminoquinazolin-7-yl)-2-(1H-tetrazol-5-yl)-6-(trifluoromethyl)benzenesulfon-amide]	–	–	–	–	–	–	–	–	–	–	–	–	IC50 [1, 19]: 4.75 nM; IC50 [2, 20]: 21.5 nM; IC50 [3, 21]: 0.432 nM; Escherichia coli MITC95 ([4]; CLB30016 (NDM-1), 95% inhibition of bacterial growth): 1.563 µM; Klebsiella pneumoniae MITC95 ([5]; IHMA599644 (VIM-1), 95% inhibition of bacterial growth): 3.125 µM; Serratia marcescens MITC95 ([6]; CL5741 (IMP-1), 95% inhibition of bacterial growth): 6.25 µM
NS(=O)(=O)c1c(CCC2CCNCC2)ccc(-c2ccc(C3CCNCC3)cc2)c1-c1nn[nH]n1 [Example 460, 4′-(piperidin-4-yl)-4-(2-(piperidin-4-yl)ethyl)-2-(2H-tetrazol-5-yl)-[1,1′-biphenyl]-3-sulfonamide]	–	–	–	–	–	–	–	16.6	10.4	0.5859	1.563	0.3906	IC50 [1]: 3.97 nM
N=C(NCCCN)c1ccc(-c2ccc(C(F)(F)F)c(S(N)(=O)=O)c2-c2nn[nH]n2)cc1 [Example 565, N-(3-aminopropyl)-3′-sulfamoyl-2′-(2H-tetrazol-5-yl)-4′-(trifluoromethyl)biphenyl-4-carboximidamide]	187	200	11.3	12.5	12.5	25	–	–	–	–	–	–	–
NS(=O)(=O)c1cccc(-c2ccc(CNCCc3cn[nH]c3)cc2)c1-c1nnn[nH]1 [Example 385, 4′-({[2-(1H-pyrazol-4-yl)ethyl]amino}methyl)-2-(1H-tetrazol-5-yl)biphenyl-3-sulfonamide]	–	–	–	–	–	–	12.5	499	357	1.563	50	6.25	–
NS(=O)(=O)c1cccc(-c2ccc(CNCCc3ncc[nH]3)cc2)c1-c1nnn[nH]1 [Example 382, 4′-({[2-(1H-imidazol-2-yl)ethyl]amino}methyl)-2-(1H-tetrazol-5-yl)biphenyl-3-sulfonamide]	–	–	–	–	–	–	12.8	212	220	1.563	50	3.125	–
NS(=O)(=O)c1c(C(F)(F)F)ccc([C@H]2CC[C@@H](C3=NCCN3)CC2)c1-c1nnn[nH]1 [Example 505, 3-(cis 4-(4,5-dihydro-1H-imidazol-2-yl)cyclohexyl)-2-(1H-tetrazol-5-yl)-6-(trifluoromethyl)benzenesulfonamide]	–	22.2	–	6.25	12.5	6.25	–	–	–	–	–	–	IC50 [1]: 9.54 nM; IC50 [3, 23]: 0.937 nM
NS(=O)(=O)c1c(C(F)(F)F)ccc([C@H]2CC[C@@H](O)CC2)c1-c1nnn[nH]1 [Example 495]	1.87	4.26	22.1	2.344	25	0.5859	–	–	–	–	–	–	–
NS(=O)(=O)c1c(C(F)(F)F)ccc([C@H]2CC[C@H](NC3CCCNC3)CC2)c1-c1nnn[nH]1 (stereo partly drawn) [Example 697, 3-[4-(piperidin-3-ylamino)cyclohexyl]-2-(1H-tetrazol-5-yl)-6-(trifluoromethyl)benzene sulfonamide]	1.61	6.42	–	0.7813	6.25	3.125	–	–	–	–	–	–	IC50 [3, 23]: 6.33 nM
